Experimental data taken from ChEMBL document CHEMBL5236667, “Synthesis of pyrrolo[3,2-d]pyrimidineone derivatives as novel FXa inhibitors” (Bioorg Med Chem Lett, 2023).
Activity calls are given as the source filed them. The rule behind the calls is not given here.

Key:
Oryctolagus cuniculus [1] = organism: Oryctolagus cuniculus; test: Anticoagulant activity in rabbit plasma assessed as T/C ratio of prothrombin time (reference value: 1); type: functional
Coagulation factor X [2] = target: T1, Coagulation factor X (Homo sapiens, UniProt P00742); test: Inhibition of factor Xa (unknown origin) assessed as residual enzymatic activity at 20 nM
Rattus norvegicus [3] = test: Antithrombotic activity in […]-induced venous thrombosis rat model assessed as thrombus inhibition rate at 1 mg/kg relative to control; type: functional
Rattus norvegicus [4] = test: Antithrombotic activity in FlC3-induced venous thrombosis rat model assessed as reduction in thrombus weight at 1 mg/kg (reference value: 9.7 +/- 1.62 mg); type: functional
Oryctolagus cuniculus [5] = organism: Oryctolagus cuniculus; test: Anticoagulant activity in rabbit plasma assessed as increase in prothrombin time at 20 to 62500 nM; type: functional; details: dose 20-62500 nM
Rattus norvegicus [6] = test: Antithrombotic activity in […]-induced venous thrombosis rat model assessed as reduction in thrombus weight at 1 mg/kg (reference value: 7.79 +/- 1.62 mg); type: functional
Rattus norvegicus [7] = test: Antithrombotic activity in […]-induced venous thrombosis rat model assessed as reduction in thrombus weight at 0.5 mg/kg (reference value: 9.7 +/- 1.62 mg); type: functional
Rattus norvegicus [8] = test: Antithrombotic activity in […]-induced venous thrombosis rat model assessed as thrombus inhibition rate at 0.5 mg/kg relative to control; type: functional
Coagulation factor X [9] = target: T1, Coagulation factor X; test: Inhibition of factor Xa (unknown origin)
Coagulation factor X [10] = target: T1, Coagulation factor X; test: Potency index, ratio of rivaroxaban IC50 to test compound IC50 for inhibition of factor Xa (unknown origin)
Rattus norvegicus [11] = test: Antithrombotic activity in […]-induced venous thrombosis rat model assessed as reduction in thrombus weight at 2 mg/kg (reference value: 9.7 +/- 1.62 mg); type: functional
Rattus norvegicus [12] = test: Antithrombotic activity in […]-induced venous thrombosis rat model assessed as thrombus inhibition rate at 2 mg/kg relative to control; type: functional

T1 sequence (P00742 41-179 limits assumed): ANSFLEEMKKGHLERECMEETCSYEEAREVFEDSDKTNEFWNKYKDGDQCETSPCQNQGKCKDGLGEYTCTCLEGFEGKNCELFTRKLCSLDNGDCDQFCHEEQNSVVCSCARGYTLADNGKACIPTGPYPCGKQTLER
T1 sequence (P00742 235-488 limits assumed): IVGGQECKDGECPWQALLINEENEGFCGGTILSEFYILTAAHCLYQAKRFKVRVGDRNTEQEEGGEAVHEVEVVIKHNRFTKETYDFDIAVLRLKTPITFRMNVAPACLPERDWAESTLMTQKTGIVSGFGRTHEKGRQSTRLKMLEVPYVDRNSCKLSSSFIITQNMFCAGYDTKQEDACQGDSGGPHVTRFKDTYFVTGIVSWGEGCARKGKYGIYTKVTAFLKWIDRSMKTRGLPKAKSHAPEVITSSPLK

Row | SMILES | Activity (Coagulation factor X [2]) [%] | IC50 (Coagulation factor X [9]) [nM] | Ratio IC50 (Coagulation factor X [10]) | T/C (Oryctolagus cuniculus [1]) | inhibition in vivo at 1 mg/kg (Rattus norvegicus [3]) [%] | Activity (Rattus norvegicus [4]) [mg] | Activity (Oryctolagus cuniculus [5]) | Activity (Rattus norvegicus [6]) [mg] | Activity (Rattus norvegicus [7]) [mg] | inhibition in vivo at 0.5 mg/kg (Rattus norvegicus [8]) [%] | Activity (Rattus norvegicus [11]) [mg] | inhibition in vivo at 2 mg/kg (Rattus norvegicus [12]) [%]
1 | O=C(NC[C@H]1CN(c2ccc(N3CCOCC3=O)cc2)C(=O)O1)c1ccc(Cl)s1 [RIVAROXABAN] | 45.8 | – | – | 2.03 | 75 | 2.41 | – | – | – | – | – | –
2 | COc1ccc(-n2nc(C(N)=O)c3c2C(=O)N(c2ccc(N4CCCCC4=O)cc2)CC3)cc1 [APIXABAN] | – | – | – | – | 58 | – | – | 3.24 | 3.33 | 66 | – | –

Continued, in another order:

Row | Activity (Coagulation factor X [2]) [%] | IC50 (Coagulation factor X [9]) [nM] | Ratio IC50 (Coagulation factor X [10]) | SMILES | T/C (Oryctolagus cuniculus [1]) | inhibition in vivo at 1 mg/kg (Rattus norvegicus [3]) [%] | Activity (Rattus norvegicus [4]) [mg] | Activity (Oryctolagus cuniculus [5]) | Activity (Rattus norvegicus [6]) [mg] | Activity (Rattus norvegicus [7]) [mg] | inhibition in vivo at 0.5 mg/kg (Rattus norvegicus [8]) [%] | Activity (Rattus norvegicus [11]) [mg] | inhibition in vivo at 2 mg/kg (Rattus norvegicus [12]) [%]
3 | 59.8 | – | – | COc1ccc(-n2cc(C#N)c3ncn(-c4ccc(N5CCOCC5=O)cc4)c(=O)c32)cc1 | 1.88 | – | – | Active | – | – | – | – | –
4 | 45.8 | 3.69 | 4 | COc1ccc(-n2cc(C#N)c3ncn(-c4ccc(N5CCC[C@H]5C(N)=O)cc4)c(=O)c32)cc1 | 1.67 | 53 | – | – | 3.65 | – | – | – | –
5 | 46.7 | 1.57 | 9 | COc1ccc(-n2cc(C(N)=O)c3ncn(-c4ccc(N5CCOCC5=O)cc4)c(=O)c32)cc1 | 1.99 | 65 | 3.05 | Active | 2.73 | 5.36 | 45 | 2.6 | 73
